In PubChem BioAssay (NCI):
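1) Cells in 96-well plates. 2) Compound, 48 h, 5 concentrations. 3) Linear interpolation between surrounding doses. 4) Unreached endpoint = highest concentration. The concentration for full growth arrest is given as TGI.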

Experiments:
Assay in all cases: NCI tumour cell line growth inhibition, 48 h
M19-MEL melanoma = system: M19-MEL melanoma
A498 renal = system: A498 renal
HCT-116 colon = system: HCT-116 colon
DMS 273 small cell lung = system: DMS 273 small cell lung
SNB-78 CNS = system: SNB-78 CNS
786-0 renal = system: 786-0 renal
U251 CNS = system: U251 CNS
DMS 114 small cell lung = system: DMS 114 small cell lung
NCI-H23 lung = system: NCI-H23 lung
EKVX NSCLC = system: EKVX NSCLC
UO-31 renal = system: UO-31 renal
HCT-15 colon = system: HCT-15 colon
SN12C renal = system: SN12C renal
RPMI-8226 leukemia = system: RPMI-8226 leukemia
NCI-H226 lung = system: NCI-H226 lung
HCC-2998 colon = system: HCC-2998 colon
A549 NSCLC = system: A549 NSCLC
NCI-H522 lung = system: NCI-H522 lung
KM12 colon = system: KM12 colon
IGROV1 ovarian = system: IGROV1 ovarian
HL-60(TB) leukemia = system: HL-60(TB) leukemia
SK-MEL-5 melanoma = system: SK-MEL-5 melanoma
SNB-19 CNS = system: SNB-19 CNS
OVCAR-8 ovarian = system: OVCAR-8 ovarian
UACC-62 melanoma = system: UACC-62 melanoma
MOLT-4 leukemia = system: MOLT-4 leukemia
RXF 393 renal = system: RXF 393 renal
M14 melanoma = system: M14 melanoma
OVCAR-5 ovarian = system: OVCAR-5 ovarian
XF 498 CNS = system: XF 498 CNS
SW-620 colon = system: SW-620 colon
HOP-62 NSCLC = system: HOP-62 NSCLC
SK-OV-3 ovarian = system: SK-OV-3 ovarian
HT29 colon = system: HT29 colon
UACC-257 melanoma = system: UACC-257 melanoma
SK-MEL-2 melanoma = system: SK-MEL-2 melanoma
LOX IMVI melanoma = system: LOX IMVI melanoma
ACHN renal = system: ACHN renal
SK-MEL-28 melanoma = system: SK-MEL-28 melanoma
HOP-18 NSCLC = system: HOP-18 NSCLC
SF-268 CNS = system: SF-268 CNS
HOP-92 NSCLC = system: HOP-92 NSCLC
K-562 leukemia = system: K-562 leukemia
SR leukemia = system: SR leukemia
CCRF-CEM leukemia = system: CCRF-CEM leukemia
KM20L2 colon = system: KM20L2 colon
TK-10 renal = system: TK-10 renal
DLD-1 colon = system: DLD-1 colon
NCI-H460 lung = system: NCI-H460 lung
LXFL 529 NSCLC = system: LXFL 529 NSCLC
SF-539 CNS = system: SF-539 CNS
OVCAR-3 ovarian = system: OVCAR-3 ovarian
COLO 205 colon = system: COLO 205 colon
CAKI-1 renal = system: CAKI-1 renal
SF-295 CNS = system: SF-295 CNS
OVCAR-4 ovarian = system: OVCAR-4 ovarian
MALME-3M melanoma = system: MALME-3M melanoma
RXF-631 renal = system: RXF-631 renal
SNB-75 CNS = system: SNB-75 CNS

Measured: TGI

Nc1c(Cl)ncnc1NCCCNc1ncnc(Cl)c1N
not listed: MALME-3M melanoma | RXF-631 renal | SNB-75 CNS
> 100 µM: all other assays above

CN(c1ccccc1)c1c(Cl)c(=O)oc2c1ccc1occc12
not listed: KM12 colon | IGROV1 ovarian | XF 498 CNS | HOP-62 NSCLC | SK-OV-3 ovarian | SF-268 CNS | COLO 205 colon
> 100 µM: all other assays above
